Experimental data published in patent US12441803B2, “Engineered CD25 polypeptides and uses thereof” (iBio, Inc., priority 2018, dated 2025).

System: alanine mutant versions of CD25
Experiment: Alanine mutagenesis functional epitope mapping
Conditions: binding responses to alanine mutant versions of CD25
Description: Alanine mutagenesis was selected as an orthogonal method for binning antibodies because it operates on the functional epitope, rather than the structural epitope defined by competition assays. Various pairs of surface-accessible residues were selected for mutagenesis.
Each of 117 scFv's from the screening campaign were tested against four alanine mutations pairs (FIG. 31).

basiliximab
Ala-mutant epitope mapping of control antibody: Ala mutant binding responses corroborate crystal structure of the basiliximab epitope
